Experimental data: ChEMBL document CHEMBL1139594, “Azinomycin inspired bisepoxides: influence of linker structure on in vitro cytotoxicity and DNA interstrand cross-linking” (2005)

How the values were obtained:
Assay type in all cases: functional
[1] = Growth inhibitory concentration against NCI panel of 60 human cancer cell lines
[2] = Mean cytotoxicity towards NCI panel of 60 human cancer cell lines; conditions: read-out: LC50 (the source's name)
[3] = Total growth inhibition of NCI panel of 60 human cancer cell lines

COc1cc(C(=O)O[C@H](C(=O)NCCN(C)CCNC(=O)[C@@H](OC(=O)c2cc(OC)cc3c(C)cccc23)[C@]2(C)CO2)[C@]2(C)CO2)c2cccc(C)c2c1
GI50 [1]: 0.028 µM
CC50 [2]: 14.4 µM
TGI [3]: 0.35 µM

COc1cc(C(=O)O[C@H](C(=O)NCCCCNC(=O)[C@@H](OC(=O)c2cc(OC)cc3c(C)cccc23)[C@]2(C)CO2)[C@]2(C)CO2)c2cccc(C)c2c1
GI50 [1]: 0.053 µM
CC50 [2]: 14.8 µM
TGI [3]: 0.55 µM

COc1cc(C(=O)O[C@H](C(=O)NCCNC(=O)[C@@H](OC(=O)c2cc(OC)cc3c(C)cccc23)[C@]2(C)CO2)[C@]2(C)CO2)c2cccc(C)c2c1
GI50 [1]: 0.072 µM
CC50 [2]: 62 µM
TGI [3]: 2.4 µM

COc1cc(C(=O)O[C@H](C(=O)NCCCCCNC(=O)[C@@H](OC(=O)c2cc(OC)cc3c(C)cccc23)[C@]2(C)CO2)[C@]2(C)CO2)c2cccc(C)c2c1
GI50 [1]: 0.178 µM
CC50 [2]: 50 µM
TGI [3]: 3.4 µM

COc1cc(C(=O)O[C@H](C(N)=O)[C@]2(C)CO2)c2cccc(C)c2c1
GI50 [1]: 0.214 µM
CC50 [2]: 33 µM
TGI [3]: 2 µM

COc1cc(C(=O)O[C@H](C(=O)NCCCNC(=O)[C@@H](OC(=O)c2cc(OC)cc3c(C)cccc23)[C@]2(C)CO2)[C@]2(C)CO2)c2cccc(C)c2c1
GI50 [1]: 0.031 µM
CC50 [2]: 3.2 µM
TGI [3]: 0.21 µM
